Reference: patent US6936585B2, “Corticotropin releasing factor 2 receptor agonists” (priority 2002, dated 2005)
Where two headings read alike, the source gives them in different places. Ends that are not written are not given here. Peptide text beside a SMILES is read from it.

Columns and labels:
CRF2R = target: T1, CRF2R (Homo sapiens, UniProt Q13324); experiment: CRF2R agonist activation (EC50 / Emax), called comparative CRF binding; format: cell-based; settings: for EC50: read-out: CRF2R EC50
T1 sequence (Q13324 1-411): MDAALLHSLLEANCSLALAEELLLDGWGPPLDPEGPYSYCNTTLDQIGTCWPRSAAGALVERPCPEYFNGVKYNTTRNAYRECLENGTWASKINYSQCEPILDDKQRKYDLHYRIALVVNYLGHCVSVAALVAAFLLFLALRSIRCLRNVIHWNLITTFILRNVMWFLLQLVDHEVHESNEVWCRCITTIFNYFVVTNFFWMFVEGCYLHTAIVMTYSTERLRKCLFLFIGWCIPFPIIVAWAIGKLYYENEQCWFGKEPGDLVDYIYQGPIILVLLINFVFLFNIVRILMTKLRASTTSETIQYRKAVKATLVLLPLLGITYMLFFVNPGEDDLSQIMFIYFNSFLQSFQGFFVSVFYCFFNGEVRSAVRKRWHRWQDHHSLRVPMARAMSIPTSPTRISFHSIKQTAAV
Method in brief: (§1)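 Agonism at each human CRF receptor subtype is inferred from increased cAMP relative to vehicle, using cells expressing that subtype and either lysate cAMP measurement or a cAMP response element reporter.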

CRF1R = target: T2, CRF1R (Homo sapiens, UniProt P34998); experiment: CRF1R agonist activation (EC50 / Emax), called comparative CRF binding; format: cell-based; settings: for EC50: read-out: CRF1R EC50
T2 sequence (P34998 24-415): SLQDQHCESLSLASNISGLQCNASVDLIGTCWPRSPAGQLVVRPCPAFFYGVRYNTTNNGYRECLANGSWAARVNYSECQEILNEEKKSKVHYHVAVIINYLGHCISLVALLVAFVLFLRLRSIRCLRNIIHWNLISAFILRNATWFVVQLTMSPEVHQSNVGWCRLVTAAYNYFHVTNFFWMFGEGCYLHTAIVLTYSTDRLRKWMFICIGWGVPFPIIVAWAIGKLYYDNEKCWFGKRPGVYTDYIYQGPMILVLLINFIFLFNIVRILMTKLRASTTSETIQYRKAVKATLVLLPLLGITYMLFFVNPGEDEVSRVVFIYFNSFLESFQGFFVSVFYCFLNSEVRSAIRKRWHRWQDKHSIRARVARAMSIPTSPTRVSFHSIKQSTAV
Method in brief: as §1

Compound	Emax (CRF2R; read-out: CRF2R (Emax %), Emax)	Emax (CRF1R; read-out: CRF1R (Emax %), Emax)	EC50 (CRF2R)	Emax (CRF2R; read-out: CRF2R Emax)	EC50 (CRF1R)	Emax (CRF1R; read-out: CRF1R Emax)
CC[C@H](C)[C@H](NC(=O)[C@H](CO)NC(=O)[C@H](CC(C)C)NC(=O)[C@H](CO)NC(=O)[C@@H]1CCCN1C(=O)[C@H](CC(N)=O)NC(=O)[C@@H](N)CC(=O)O)C(=O)N[C@@H](CC(=O)O)C(=O)N[C@@H](CC(C)C)C(=O)N[C@H](C(=O)N[C@@H](Cc1ccccc1)C(=O)N[C@@H](Cc1c[nH]cn1)C(=O)N[C@@H](CC(C)C)C(=O)N[C@@H](CC(C)C)C(=O)N[C@@H](CCCNC(=N)N)C(=O)N[C@H](C(=O)N[C@@H](CC(C)C)C(=O)N[C@@H](CC(C)C)C(=O)N[C@@H](CCC(=O)O)C(=O)N[C@@H](CC(C)C)C(=O)N[C@@H](C)C(=O)N[C@@H](CCCNC(=N)N)C(=O)N[C@H](C(=O)N[C@@H](CCC(N)=O)C(=O)N[C@@H](CO)C(=O)N[C@@H](CCC(N)=O)C(=O)N[C@@H](CCCNC(=N)N)C(=O)N[C@@H](CCC(=O)O)C(=O)N[C@@H](CCCNC(=N)N)C(=O)N[C@@H](C)C(=O)N[C@@H](CCC(=O)O)C(=O)N[C@@H](CCC(N)=O)C(=O)N[C@@H](CC(N)=O)C(=O)N[C@@H](CCCNC(=N)N)C(=O)N[C@H](C(=O)N[C@H](C(=O)N[C@@H](Cc1ccccc1)C(=O)N[C@@H](CC(=O)O)C(=O)N[C@@H](CO)C(=O)N[C@H](C(N)=O)C(C)C)[C@@H](C)CC)[C@@H](C)CC)[C@@H](C)O)[C@@H](C)O)[C@@H](C)O [hUcnI, human urocortin I, reference compound] (H-DNPSLSIDLTFHLLRTLLELARTQSQRERAEQNRIIFDSV-NH2)	100%	100%				
CC[C@H](C)[C@H](NC(=O)[C@H](CC(N)=O)NC(=O)[C@H](C)NC(=O)[C@H](CC(N)=O)NC(=O)[C@H](CCC(N)=O)NC(=O)[C@H](CCC(=O)O)NC(=O)[C@H](C)NC(=O)[C@H](CCCNC(=N)N)NC(=O)[C@H](CCC(=O)O)NC(=O)[C@H](CCCNC(=N)N)NC(=O)[C@H](CCC(N)=O)NC(=O)[C@H](CO)NC(=O)[C@H](CCC(N)=O)NC(=O)[C@@H](NC(=O)[C@H](CCCCN)NC(=O)[C@H](CCC(=O)O)NC(=O)[C@H](CC(C)C)NC(=O)[C@H](CCC(=O)O)NC(=O)[C@H](CC(C)C)NC(=O)[C@H](CC(C)C)NC(=O)[C@@H](NC(=O)[C@H](CCCNC(=N)N)NC(=O)[C@H](CC(C)C)NC(=O)[C@H](CC(C)C)NC(=O)[C@H](CC(C)C)NC(=O)[C@H](CC(C)C)NC(=O)[C@@H]1CCCN1C(=O)[C@H](CC(C)C)NC(=O)[C@H](CC(=O)O)NC(=O)[C@@H](NC(=O)[C@H](CO)NC(=O)[C@H](CC(C)C)NC(=O)[C@H](CO)NC(=O)[C@@H]1CCCN1C(=O)[C@H](CC(N)=O)NC(=O)[C@@H](N)CC(=O)O)[C@@H](C)CC)[C@@H](C)O)[C@@H](C)O)C(=O)N[C@@H](Cc1ccccc1)C(=O)N[C@@H](C)C(=O)N[C@@H](CC(N)=O)C(=O)N[C@H](C(N)=O)C(C)C [compound 326] (H-DNPSLSIDLPLLLLRTLLELEKTQSQRERAEQNANIFANV-NH2; N-terminus assumed)			33.7 nM	100%	≥ 1000 nM	30.1%
CC[C@H](C)[C@H](NC(=O)[C@H](CCCNC(=N)N)NC(=O)[C@H](C)NC(=O)[C@H](CC(N)=O)NC(=O)[C@H](CCC(N)=O)NC(=O)[C@H](CCC(=O)O)NC(=O)[C@H](C)NC(=O)[C@H](CCCNC(=N)N)NC(=O)[C@H](CCC(=O)O)NC(=O)[C@H](CCCNC(=N)N)NC(=O)[C@H](CCC(N)=O)NC(=O)[C@H](CO)NC(=O)[C@H](CCC(N)=O)NC(=O)[C@@H](NC(=O)[C@H](CCCCN)NC(=O)[C@H](CCC(=O)O)NC(=O)[C@H](CC(C)C)NC(=O)[C@H](CCC(=O)O)NC(=O)[C@H](CC(C)C)NC(=O)[C@H](CC(C)C)NC(=O)[C@@H](NC(=O)[C@H](CCCNC(=N)N)NC(=O)[C@H](CC(C)C)NC(=O)[C@H](CC(C)C)NC(=O)[C@@H](NC(=O)[C@H](CC(C)C)NC(=O)[C@@H]1CCCN1C(=O)[C@H](CC(C)C)NC(=O)[C@H](CC(=O)O)NC(=O)[C@@H](NC(=O)[C@H](CO)NC(=O)[C@H](CC(C)C)NC(=O)[C@H](CO)NC(=O)[C@@H]1CCCN1C(=O)[C@H](CC(N)=O)NC(=O)[C@@H](N)CC(=O)O)[C@@H](C)CC)[C@@H](C)CC)[C@@H](C)O)[C@@H](C)O)C(=O)N[C@@H](Cc1ccccc1)C(=O)N[C@@H](C)C(=O)N[C@@H](CCCNC(=N)N)C(=O)N[C@H](C(N)=O)C(C)C [compound 335] (H-DNPSLSIDLPLILLRTLLELEKTQSQRERAEQNARIFARV-NH2; N-terminus assumed)			28 nM	91%	≥ 1000 nM	49.5%
SQEPPISLDLPFELLREVLEMTKADQLAQQAHSNRKLLDIA-NH2 [compound 97]				7.6%		4.25%
NDDPPISIDLPYYLLRNMIEMARIENEREQAGLNAKYLAEV-NH2 [compound 267]				44.2%		22.8%
CC[C@H](C)[C@H](N)C(=O)N[C@H](C(=O)N[C@@H](CC(C)C)C(=O)N[C@@H](CO)C(=O)N[C@@H](CC(C)C)C(=O)N[C@@H](CC(=O)O)C(=O)N[C@H](C(=O)N1CCC[C@H]1C(=O)N[C@H](C(=O)NCC(=O)N[C@@H](CC(C)C)C(=O)N[C@@H](CC(C)C)C(=O)N[C@@H](CCC(N)=O)C(=O)N[C@H](C(=O)N[C@@H](CC(C)C)C(=O)N[C@@H](CC(C)C)C(=O)N[C@@H](CCC(=O)O)C(=O)N[C@@H](CCC(N)=O)C(=O)N[C@@H](C)C(=O)N[C@@H](C)C(=O)N[C@@H](CCCNC(=N)N)C(=O)N[C@@H](CCC(=O)O)C(=O)N[C@@H](CCC(N)=O)C(=O)N[C@@H](C)C(=O)N[C@H](C(=O)N[C@H](C(=O)N[C@@H](CC(N)=O)C(=O)N[C@@H](C)C(=O)N[C@@H](CCCNC(=N)N)C(=O)N[C@H](C(=O)N[C@@H](CC(C)C)C(=O)N[C@@H](C)C(=O)N[C@@H](CCCNC(=N)N)C(=O)N[C@H](C(N)=O)C(C)C)[C@@H](C)CC)[C@@H](C)O)[C@@H](C)O)[C@@H](C)CC)[C@@H](C)CC)C(C)C)C(C)C [compound 138] (H-IVLSLDVPIGLLQILLEQAAREQATTNARILARV-NH2; N-terminus assumed)			59 nM	46%	> 100 nM	5%
CC[C@H](C)[C@H](N)C(=O)N[C@H](C(=O)N[C@@H](CC(C)C)C(=O)N[C@@H](CO)C(=O)N[C@@H](CC(C)C)C(=O)N[C@@H](CC(=O)O)C(=O)N[C@H](C(=O)N[C@H](C(=O)N[C@H](C(=O)NCC(=O)N[C@@H](CC(C)C)C(=O)N[C@@H](CC(C)C)C(=O)N[C@@H](CCC(N)=O)C(=O)N[C@H](C(=O)N[C@@H](CC(C)C)C(=O)N[C@@H](CC(C)C)C(=O)N[C@@H](CCC(=O)O)C(=O)N[C@@H](CCC(N)=O)C(=O)N[C@@H](C)C(=O)N[C@@H](CCCNC(=N)N)C(=O)N[C@@H](C)C(=O)N[C@@H](CCCNC(=N)N)C(=O)N[C@@H](C)C(=O)N[C@@H](C)C(=O)N[C@@H](CCCNC(=N)N)C(=O)N[C@@H](CCC(=O)O)C(=O)N[C@@H](CCC(N)=O)C(=O)N[C@@H](C)C(=O)N[C@H](C(=O)N[C@H](C(=O)N[C@@H](CC(N)=O)C(=O)N[C@@H](C)C(=O)N[C@@H](CCCNC(=N)N)C(=O)N[C@H](C(=O)N[C@@H](CC(C)C)C(=O)N[C@@H](C)C(=O)N[C@@H](CCCNC(=N)N)C(=O)N[C@H](C(N)=O)C(C)C)[C@@H](C)CC)[C@@H](C)O)[C@@H](C)O)[C@@H](C)CC)[C@@H](C)CC)C(C)C)C(C)C)C(C)C [compound 214] (H-IVLSLDVVIGLLQILLEQARARAAREQATTNARILARV-NH2; N-terminus assumed)				60%		4%
CC[C@H](C)[C@H](NC(=O)[C@H](C)NC(=O)[C@H](CC(N)=O)NC(=O)[C@H](CCC(N)=O)NC(=O)[C@H](CCC(=O)O)NC(=O)[C@H](C)NC(=O)[C@H](CCCNC(=N)N)NC(=O)[C@H](CCC(=O)O)NC(=O)[C@H](CCCNC(=N)N)NC(=O)[C@H](CCC(N)=O)NC(=O)[C@H](CO)NC(=O)[C@H](CCC(N)=O)NC(=O)[C@@H](NC(=O)[C@H](CCCNC(=N)N)NC(=O)[C@H](C)NC(=O)[C@H](CC(C)C)NC(=O)[C@H](CCC(=O)O)NC(=O)[C@H](CC(C)C)NC(=O)[C@H](CC(C)C)NC(=O)[C@@H](NC(=O)[C@H](CCCNC(=N)N)NC(=O)[C@H](CC(C)C)NC(=O)[C@H](CC(C)C)NC(=O)[C@H](Cc1c[nH]cn1)NC(=O)[C@H](CC(C)C)NC(=O)[C@@H]1CCCN1C(=O)[C@H](CC(C)C)NC(=O)[C@H](CC(=O)O)NC(=O)[C@@H](NC(=O)[C@H](CO)NC(=O)[C@H](CC(C)C)NC(=O)[C@H](CO)NC(=O)[C@@H]1CCCN1C(=O)[C@H](CC(N)=O)NC(=O)[C@@H](N)CC(=O)O)[C@@H](C)CC)[C@@H](C)O)[C@@H](C)O)C(=O)N[C@H](C(=O)N[C@@H](Cc1ccccc1)C(=O)N[C@@H](C)C(=O)N[C@@H](CO)C(=O)N[C@H](C(N)=O)C(C)C)[C@@H](C)CC [compound 179] (H-DNPSLSIDLPLHLLRTLLELARTQSQRERAEQNAIIFASV-NH2; N-terminus assumed)				92.5%		78.9%
